From patent US11866414B2, “Substituted heterocyclic compounds” (BRISTOL-MYERS SQUIBB COMPANY, priority 2021, dated 2024)
Where two headings read alike, the source gives them in different places.

What was measured:
[1] = Brain penetration in vivo assay (brain and plasma exposure); settings: C57BL6, brain / plasma, 10 mg/kg, mouse, 10 mpk, po, read-out: Ratio of exposure in brain to plasma (mouse) (1 h, 10 mpk, po)
Description: Brain Penetration In Vivo Assay
A pharmacokinetic study was performed using C57BL6 wild-type mice (n=3 per experiment) to determine brain and plasma exposure of compounds of the invention. The compound was administered orally in a solution of 5% ETHANOL: 90% PEG 300; 5% TPGS at 5 mL/kg for a final concentration of 10 mg/kg. Nice were euthanized 1 hour post-dose and plasma and brain were collected and frozen for analysis. Brain tissues were homogenized in a 1:1 volume of blank C57BL6 mouse plasma. Concentrations of the compound in plasma and brain homogenate were determined by LC-MS analysis.

[2] = test system: IFNα-induced STAT phosphorylation (pSTAT5); assay: IFNα-induced STAT phosphorylation in human whole blood; format: cell-based; settings: 1 h compound, 1000 U/mL IFNα A/D 15 min, CD3 positive population, read-out: Human Whole blood IFNa pSTAT5 IC50
[3] = in vitro; settings: human, Caco-2, pH 7.4
[4] = test system: Caco-2 cells; settings: human, Caco-2, 2 h, 3 μM, pH 7.4

Compound | Kp at 1 h ([1]; Table 4, comparison of CNS penetration with prior art) | IC50 [2] [nM] | Kp at 1 h [1] | Papp A→B at 2 h, 3 μM [3] [×10⁻⁶ cm/s] | efflux ratio at 2 h, 3 μM [3] | CACO2 (A-B) [4] [nm/s]
[2H]C([2H])([2H])NC(=O)c1nnc(NC(=O)C2CC2)cc1Nc1cccc(-c2ncn(C3CC3)n2)c1OC [B, reference compound] | 0.02 | – | – | – | – | –
[2H]C([2H])([2H])NC(=O)c1nnc(NC(=O)C2CC2)cc1Nc1cccc(-c2cnn(CC)n2)c1OC [Example 1, 6-(cyclopropanecarboxamido)-4-((2-methoxy-3-(2-ethyl-2H-1,2,3-triazol-4-yl)phenyl)amino)-N-(methyl-d3)pyridazine-3-carboxamide] | – | 260 | 0.7 | 29.1 | 0.8 | –
[2H]C([2H])([2H])NC(=O)c1nnc(NC(=O)C2CC2)cc1Nc1cc(F)cc(-c2cnn(C)n2)c1OC [Example 4, 6-cyclopropaneamido-4-{[5-fluoro-2-methoxy-3-(2-methyl-2H-1,2,3-triazol-4-yl)phenyl]amino}-N—(^2H3)methylpyridazine-3-carboxamide] | – | 290 | 0.8 | 32.7 | 0.6 | –
[2H]C([2H])([2H])NC(=O)c1nnc(Nc2ccc(OC)nn2)cc1Nc1cccc(-c2cnn(C)n2)c1OC [Example 5, 4-{[2-methoxy-3-(2-methyl-2H-1,2,3-triazol-4-yl)phenyl]amino}-6-[(6-methoxypyridazin-3-yl)amino]-N—(^2H3)methylpyridazine-3-carboxamide] | – | 60 | 0.2 | 20.9 | 0.9 | –
[2H]C([2H])([2H])NC(=O)c1nnc(NC(=O)C2CC2)cc1Nc1cc(C)cc(-c2cnn(C3CC3)n2)c1OC [Example 9, 6-cyclopropaneamido-4-{[3-(2-cyclopropyl-2H-1,2,3-triazol-4-yl)-2-methoxy-5-methylphenyl]amino}-N—(^2H3)methylpyridazine-3-carboxamide] | – | 100 | 0.2 | 14 | 0.3 | –
[2H]C([2H])([2H])NC(=O)c1nnc(NC(=O)C2CC2)cc1Nc1cccc(-c2cnn(C3CC3)n2)c1OC [Example 11, 6-cyclopropaneamido-4-{[3-(2-cyclopropyl-2H-1,2,3-triazol-4-yl)-2-methoxyphenyl]amino}-N—(^2H3)methylpyridazine-3-carboxamide] | – | 120 | 0.5 | 9.7 | 0.7 | –
[2H]C([2H])([2H])NC(=O)c1nnc(NC(=O)C2CC2)cc1Nc1cc(Cl)cc(-c2cnn(CC)n2)c1OC [Example 15, 4-{[5-chloro-3-(2-ethyl-2H-1,2,3-triazol-4-yl)-2-methoxyphenyl]amino}-6-cyclopropaneamido-N—(^2H3)methylpyridazine-3-carboxamide] | – | – | – | – | – | 63
[2H]C([2H])([2H])NC(=O)c1nnc(NC(=O)C2CC2)cc1Nc1ccc(F)c(-c2cnn(C3CC3)n2)c1OC [Example 16, 6-cyclopropaneamido-4-{[3-(2-cyclopropyl-2H-1,2,3-triazol-4-yl)-4-fluoro-2-methoxyphenyl]amino}-N—(^2H3)methylpyridazine-3-carboxamide] | – | – | – | – | – | 392
[2H]C([2H])([2H])NC(=O)c1nnc(NC(=O)C2CC2)cc1Nc1ccc(F)c(-c2cnn(C)n2)c1OC [Example 18, 6-cyclopropaneamido-4-{[4-fluoro-2-methoxy-3-(2-methyl-2H-1,2,3-triazol-4-yl)phenyl]amino}-N—(^2H3)methylpyridazine-3-carboxamide] | – | – | – | – | – | 654
[2H]C([2H])([2H])NC(=O)c1nnc(NC(=O)C2CC2)cc1Nc1cc(OC)cc(-c2cnn(C)n2)c1OC [Example 24, 6-(cyclopropane-carboxamido)-4-((2,5-dimethoxy-3-(2-methyl-2H-1,2,3-triazol-4-yl)phenyl)amino)-N-(methyl-d3)pyridazine-3-carboxamide] | – | 120 | 0.2 | 33 | 0.5 | –
[2H]C([2H])([2H])NC(=O)c1nnc(NC(=O)C2CC2)cc1Nc1nccc(-c2cnn(C)n2)c1OC [Example 36, 6-(cyclopropanecarboxamido)-4-((3-methoxy-4-(2-methyl-2H-1,2,3-triazol-4-yl)pyridin-2-yl)amino)-N-(methyl-d3)pyridazine-3-carboxamide] | – | 50 | 0.8 | 32.8 | 0.6 | –
[2H]C([2H])([2H])NC(=O)c1nnc(NC(=O)[C@@H]2C[C@@H]2F)cc1Nc1nccc(-c2cnn(C)n2)c1OC [Example 37, 6-((1S,2S)-2-fluorocyclopropane-1-carboxamido)-4-((3-methoxy-4-(2-methyl-2H-1,2,3-triazol-4-yl)pyridin-2-yl)amino)-N-(methyl-d3)pyridazine-3-carboxamide] | – | 20 | 0.1 | 49.4 | 0.9 | –
[2H]C([2H])([2H])NC(=O)c1nnc(NC(=O)[C@@H]2C[C@H]2C)cc1Nc1nccc(-c2cnn(C)n2)c1OC [Example 41, 4-((3-methoxy-4-(2-methyl-2H-1,2,3-triazol-4-yl)pyridin-2-yl)amino)-N-(methyl-d3)-6-((1R,2R)-2-methylcyclopropane-1-carboxamido)pyridazine-3-carboxamide] | – | 80 | 0.3 | 33.9 | 0.5 | –
[2H]C([2H])([2H])NC(=O)c1nnc(NC(=O)C2CC2)cc1Nc1cccc(-c2cnn(C([2H])([2H])[2H])n2)c1OC [Example 52, 6-cyclopropaneamido-4-({2-methoxy-3-[2-(^2H3)methyl-2H-1,2,3-triazol-4-yl]phenyl}amino)-N—(^2H3)methylpyridazine-3-carboxamide] | – | – | – | – | – | 482
[2H]C([2H])([2H])NC(=O)c1nnc(NC(=O)C2CC2)cc1Nc1cccc(-c2cnn(C3CCC3)n2)c1OC [Example 54, 4-{[3-(2-cyclobutyl-2H-1,2,3-triazol-4-yl)-2-methoxyphenyl]amino}-6-cyclopropaneamido-N—(^2H3)methylpyridazine-3-carboxamide] | – | – | – | – | – | 180
[2H]C([2H])([2H])NC(=O)c1nnc(NC(=O)C2CC2)cc1Nc1ccc(C2CC2)c(-c2cnn(C)n2)c1OC [Example 55, 6-cyclopropaneamido-4-{[4-cyclopropyl-2-methoxy-3-(2-methyl-2H-1,2,3-triazol-4-yl)phenyl]amino}-N—(^2H3)methylpyridazine-3-carboxamide] | – | – | – | – | – | 507
[2H]C([2H])([2H])NC(=O)c1nnc(NC(=O)C2CC2)cc1Nc1cccc(-c2cnn(C)n2)c1OC(F)F [Example 56, 6-cyclopropaneamido-4-{[2-(difluoromethoxy)-3-(2-methyl-2H-1,2,3-triazol-4-yl)phenyl]amino}-N—(^2H3)methylpyridazine-3-carboxamide] | – | – | – | – | – | 432
[2H]C([2H])([2H])NC(=O)c1nnc(NC(=O)C2CC2)cc1Nc1nccc(-c2cnn(C)n2)c1OC(F)F [Example 60, 6-cyclopropaneamido-4-{[3-(difluoromethoxy)-4-(2-methyl-2H-1,2,3-triazol-4-yl)pyridin-2-yl]amino}-N—(^2H3)methylpyridazine-3-carboxamide] | – | – | – | – | – | 340
